“Also recorded” adds a separate entry of the source.
Legend:
[1] = system: juxtaglomerular (JG) cells; assay: Renin mRNA expression in cultured JG cells treated with prostanoid agonists (real time RT-PCR); assay type: cell-based, mouse
Procedure: Culture of Juxtaglomerular (JG) cells: JG cells were prepared as described (Fujino et al., 2004, J Clin Invest. 114: 805-812). The kidneys were removed, decapsulated, minced with a surgical blade, incubated with 0.1% collagenase for 15 minutes at 37° C. and filtered through a 40 μm nylon mesh. The filtered cells were placed on 15 ml of 30% isosmotic Percoll solution (Amersham Biosciences) and centrifuged at 27,000 g for 20 minutes at 4° C. The cell layer near the surface, enriched with JG cells, was collected and washed. […] The resulting cDNA (40 ng) was used for quantitative real time PCR. Quantitative real time PCR Analysis of Gene Expression: TaqMan gene expression assays (Applied Biosystems, Foster City, Calif.; catalog No. 4331182) for FP (Mm004360055_m1), RENIN (Mm02342889_g1), TNFα (Mm00443258_m1), IL-1β (Mm00434228_m1), IL-12β (Mm01351787_m1), IL-4 (Mm00445259_m1,) IL-6 (Mm00446190_m1), IL-18 (Mm00434225_m1), iNOS (Mm01309902_m1), TGFβ (Mm00441724_m1), INFγ (Mm00801778_m1), IL-10 (Mm00439616_m1) were performed on an ABI Prism 7900 Sequence Detection System. […] An prostanoid agonist was administered as different concentrations and the expression of renin was monitored using real time RT-PCR. […]

[2] = system: JG cells; assay: cAMP content in cultured cells rich in JG cells; assay type: cell-based, mouse; conditions: vs vehicle controls
Description: (§1) FIGS. 5A-5E depict data related to renin expression resulting from activation of FP or prostacyclin (IP) receptor in in vitro cultures of juxtaglomerular apparatus cells obtained from WT or FP knockout mice. FIG. 5A is a graph depicting the effect of FP agonists Latanoprost (Lata) and Travoprost (Trav), and IP agonist Cicaprost (Cica) on renin mRNA expression in JG enriched cultured cells. Each point represents mean±SEMs of 4 cell groups, repeated 3 times. FIG. 5B is a bar graph illustrating the effect of effect of Latanoprost and Cicaprost on cAMP content in cultured cells rich in JG cells. Data are presented as cAMP fold change from 3-6 independent samples (6-well plate) from 3 independent experiments. *, p<0.05 vs vehicle controls, n=3. FIG. 5C is a graph of the original recording of membrance capacitance in a single mouse JG cell from WT mice. […] FIG. 5E is a graph of whole cell currents were measured in response to 11 pulses from −150 to +90 mV in 30-mV steps for 200 ms from a holding potential of −30 mV. Pulses were applied before and after superfusion with 1 μM Latanoprost. Mean steady-state current-voltage curves from 4 independent experiments before (cycle) and after (square) 20 min of capacitance measurements are given.
Culture of Juxtaglomerular (JG) cells: JG cells were prepared as described (Fujino et al., 2004, J Clin Invest. 114: 805-812). […]

[3] = system: renin secretion; conditions: Jensen et al., 1996; Fujino et al., 2004; cited from earlier work
[4] = system: single WT JG cells; assay: Patch-clamp membrane capacitance of single JG cells; assay type: cell-based, mouse; conditions: single WT JG cells in vitro, 1 μM Latanoprost
Description: as §1

[5] = system: WT and FP knockout mice; assay: Mean arterial blood pressure after bolus of Ang II; assay type: in vivo, mouse; conditions: 50 ng/kg, acute intracarotid infusion, n=7
Procedure: FIGS. 3A-3C depicts data related to angiotensin II receptor (AT1) expression and blood pressure effects of Ang II injection in WT and FP knockout mice. FIG. 3A depicts AT1a and FIG. 3B depicts AT1b gene expression in aorta by real time RT-PCR. *p<0.01 (n=4) versus WT, repeated 3 times. FIG. 3C depicts blood pressure (BP) after Angiotengin II (Ang II) administration (50 ng/kg) compared with baseline in FP^−/− and WT littermates. Mean arterial BP was monitored in mice by pressure transducer connected to a catheter in left artery. Baseline BP is readout before injection. BP changes are depicted as difference between baseline and after injection at one min intervals. *p<0.01 versus WT, n=8-9.
Mean Arterial Blood Pressure (BP) Measurements: The right internal jugular vein and left carotid artery of anesthetized mice were cannulated with PE-10 tubing. The arterial catheter was connected to a Capto SP844 pressure transducer, and BP was monitored continuously with a PowerLab/8SP system. […]
To examine the acute effect of Ang II on blood pressure, WT and FPKO mice were sedated and subjected to a bolus infusion of Ang II. Blood pressure was measured directly using an arterial catheter connected to a pressure transducer. After the equilibration period and the baseline BP was recorded, mice were injected with a bolus of Ang II.

[6] = system: WT and FPKO mice; assay: Mean arterial blood pressure after PGF2α administration; assay type: in vivo, mouse
Procedure: Mean Arterial Blood Pressure (BP) Measurements: The right internal jugular vein and left carotid artery of anesthetized mice were cannulated with PE-10 tubing. The arterial catheter was connected to a Capto SP844 pressure transducer, and BP was monitored continuously with a PowerLab/8SP system. Mice were injected via the right internal jugular vein with […] or PGF2α administration to exclude volume-mediated BP changes.
Given that the lacZ gene was knocked into the endogenous FP receptor locus in the FP targeting allele, the receptor expression pattern was monitored by mapping β-galactosidase (β-gal) activity. Scattered activity of β-gal was detectable in the medial smooth muscle layer of renal small arteries in FP^+/− mice (FIG. 6A), but was not evident in FP^+/− mouse aorta nor in the atherosclerotic lesions of Ldlr^−/−/FP^−/− mice (FIGS. 6B-6G). To assess the systemic effect of PGF2α, WT and FPKO mice were sedated in order to measure blood pressure directly in the heart. PGF2α was administered and blood pressure was monitored. Once blood pressure returned to baseline, the next dose of PGF2α was administered (FIG. 6H). Four doses of PGF2α were tested: 10 μg/kg body weight, 30 μg/kg, 90 μg/kg and […].

For `CCC#CC[C@H](C)[C@H](O)C#C[C@@H]1[C@H]2C/C(=C/COCC(=O)O)C[C@H]2C[C@H]1O` [Cicaprost], the “expression of renin in JG cells from FPKO mice” value ([1]; JG cells from FPKO mice, 20 hours incubation, various concentrations) was “stimulated”, the “effects as a renin secretagogue, WT compared with FP−/− mice” value ([1]; JG cells from WT vs FP−/− mice) was “similar” and the “JG cell cAMP” value [2] was “increase”.

For `CCCCC[C@H](O)/C=C/[C@H]1[C@H](O)CC(=O)[C@@H]1C/C=C\CCCC(=O)O` [PGE2], the renin secretagogue activity [3] is given as “potent renin secretagogues”.

In the case of `CC(C)OC(=O)CCC/C=C\C[C@@H]1[C@@H](CC[C@@H](O)CCc2ccccc2)[C@H](O)C[C@@H]1O` [Latanoprost], the “JG cell cAMP” value [2] is reported as “failed to increase” and the “change in membrane capacitance” value [4] is reported as “no change”.

In the case of “angiotensin II (DRVYIHPF; Angiotensin-2; UniProt P01019 25-32, looked up) [Ang II, Ang II peptide, a powerful vasoconstrictor]”, the “hypertensive response to acute infusion of Ang II in FP KO mice” value ([5]; FP KO mice) is reported as 37.5±5.6 and the “hypertensive response to acute infusion of Ang II in WT controls” value ([5]; WT controls) is reported as 20.3±4.7.

For prostaglandin F2α [PGF2α], the “blood pressure after PGF2α administration in FPKO mice” value ([6]; FPKO mice, 10, 30, 90, 270 μg/kg) was “not”, the “blood pressure in FP−/− mice at the highest rate of infusion” value ([6]; FP−/− mice, highest rate of infusion) was “rise in blood pressure” and the “blood pressure after PGF2α administration in WT mice” value ([6]; WT mice, 10, 30, 90, 270 μg/kg) was “increased; also recorded: dose dependent”. For the same molecule, the renin secretagogue activity [3] was “not”.

In the case of `CCCCC[C@H](O)/C=C/[C@@H]1[C@H]2C/C(=C/CCCC(=O)O)O[C@H]2C[C@H]1O` [Prostacyclin (PGI2), Prostacyclin], the renin secretagogue activity [3] is listed as “potent renin secretagogues”.

Source: US20110172308A1, “Antagonsim of PGF2a Receptor to Treat Hyertension Characterized by Activation of the Renin-Angiotensin-Aldosterone System” (The Trustees of The University of Pennsylvania, priority 2008, published 2011)
